#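 Where inhibition never reached the appropriate level, the endpoint shown equals the highest concentration tested. Otherwise, values were interpolated linearly from a five-concentration, 48-hour dose response in 96-well plates. The concentration for 50% growth inhibition is given as GI50. At the TGI there is no net growth.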
# What was measured:
# Experiment in all cases: NCI tumour cell line growth inhibition, 48 h
# [1] = tested on: SNB-75 CNS
# [2] = tested on: OVCAR-8 ovarian
# [3] = tested on: BT-549 breast
# [4] = tested on: 786-0 renal
# [5] = tested on: EKVX NSCLC
# [6] = tested on: HOP-62 NSCLC
# [7] = tested on: UO-31 renal
# [8] = tested on: M14 melanoma
# [9] = tested on: SK-MEL-2 melanoma
# [10] = tested on: MDA-MB-231 breast
# [11] = tested on: MCF7 breast
# [12] = tested on: SF-268 CNS
# [13] = tested on: HS 578T breast
# [14] = tested on: DU-145 prostate
# [15] = tested on: NCI-H23 lung
# [16] = tested on: LOX IMVI melanoma
# [17] = tested on: MDA-MB-435
# [18] = tested on: NCI-H226 lung
# [19] = tested on: OVCAR-5 ovarian
# [20] = tested on: SNB-19 CNS
# [21] = tested on: NCI/ADR-RES ovarian
# [22] = tested on: SR leukemia
# [23] = tested on: OVCAR-3 ovarian
# [24] = tested on: UACC-257 melanoma
# [25] = tested on: SK-MEL-5 melanoma
# [26] = tested on: COLO 205 colon
# [27] = tested on: HOP-92 NSCLC
# [28] = tested on: U251 CNS
# [29] = tested on: PC-3 prostate
# [30] = tested on: KM12 colon
# [31] = tested on: MALME-3M melanoma
# [32] = tested on: A498 renal
# [33] = tested on: IGROV1 ovarian
# [34] = tested on: A549 NSCLC
# [35] = tested on: HCT-116 colon
# [36] = tested on: NCI-H522 lung
# [37] = tested on: T-47D breast
# [38] = tested on: HCC-2998 colon
# [39] = tested on: MOLT-4 leukemia
# [40] = tested on: ACHN renal
# [41] = tested on: OVCAR-4 ovarian
# [42] = tested on: HL-60(TB) leukemia
# [43] = tested on: SN12C renal
# [44] = tested on: TK-10 renal
# [45] = tested on: SW-620 colon
# [46] = tested on: CCRF-CEM leukemia
# [47] = tested on: SF-539 CNS
# [48] = tested on: UACC-62 melanoma
# [49] = tested on: K-562 leukemia
# [50] = tested on: RPMI-8226 leukemia
# [51] = tested on: NCI-H460 lung
# [52] = tested on: SK-MEL-28 melanoma
# [53] = tested on: HCT-15 colon
# [54] = tested on: SK-OV-3 ovarian
# [55] = tested on: SF-295 CNS
# [56] = tested on: HT29 colon
structure (smiles),measurement,setting,value
COc1cnc2c(c1)C(=O)c1c-2n(CCCNC2=NCCS2)c(=O)c2cc(F)ccc12,GI50,[1],358 nM
same,TGI,[1],18900 nM
same,GI50,[2],132 nM
same,TGI,[2],4720 nM
same,GI50,[3],1080 nM
same,TGI,[3],17500 nM
same,GI50,[4],271 nM
same,TGI,[4],1310 nM
same,GI50,[5],897 nM
same,TGI,[5],24500 nM
same,GI50,[6],59.5 nM
same,TGI,[6],2600 nM
same,GI50,[7],108 nM
same,TGI,[7],1120 nM
same,GI50,[8],170 nM
same,TGI,[8],1320 nM
same,GI50,[9],15800 nM
same,TGI,[9],32700 nM
same,GI50,[10],1140 nM
same,TGI,[10],2570 nM
same,GI50,[11],33 nM
same,TGI,[11],1660 nM
same,GI50,[12],135 nM
same,TGI,[12],2580 nM
same,GI50,[13],12000 nM
same,TGI,[13],32400 nM
same,GI50,[14],144 nM
same,TGI,[14],1630 nM
same,GI50,[15],220 nM
same,TGI,[15],1660 nM
same,GI50,[16],111 nM
same,TGI,[16],1120 nM
same,GI50,[17],750 nM
same,TGI,[17],2370 nM
same,GI50,[18],247 nM
same,TGI,[18],1660 nM
same,GI50,[19],795 nM
same,TGI,[19],13300 nM
same,GI50,[20],150 nM
same,TGI,[20],2610 nM
same,GI50,[21],340 nM
same,TGI,[21],11900 nM
same,GI50,[22],49.9 nM
same,TGI,[22],2040 nM
same,GI50,[23],567 nM
same,TGI,[23],2270 nM
same,GI50,[24],456 nM
same,TGI,[24],20400 nM
same,GI50,[25],342 nM
same,TGI,[25],1440 nM
same,GI50,[26],201 nM
same,TGI,[26],1910 nM
same,GI50,[27],563 nM
same,TGI,[27],19700 nM
same,GI50,[28],44.2 nM
same,TGI,[28],1350 nM
same,GI50,[29],208 nM
same,TGI,[29],18700 nM
same,GI50,[30],577 nM
same,TGI,[30],3680 nM
same,GI50,[31],598 nM
same,TGI,[31],13200 nM
same,GI50,[32],264 nM
same,TGI,[32],1630 nM
same,GI50,[33],434 nM
same,TGI,[33],15500 nM
same,GI50,[34],155 nM
same,TGI,[34],1750 nM
same,GI50,[35],82.5 nM
same,TGI,[35],1830 nM
same,GI50,[36],38.1 nM
same,TGI,[36],1280 nM
same,GI50,[37],76.2 nM
same,TGI,[37],17200 nM
same,GI50,[38],12800 nM
same,TGI,[38],28600 nM
same,GI50,[39],42.1 nM
same,TGI,[39],514 nM
same,GI50,[40],49.6 nM
same,TGI,[40],1910 nM
same,GI50,[41],463 nM
same,TGI,[41],2360 nM
same,GI50,[42],381 nM
same,TGI,[42],1560 nM
same,GI50,[43],238 nM
same,TGI,[43],12300 nM
same,GI50,[44],1120 nM
same,TGI,[44],2520 nM
same,GI50,[45],120 nM
same,TGI,[45],3340 nM
same,GI50,[46],40.2 nM
same,TGI,[46],5490 nM
same,GI50,[47],305 nM
same,TGI,[47],1090 nM
same,GI50,[48],344 nM
same,TGI,[48],14600 nM
same,GI50,[49],249 nM
same,TGI,[49],2920 nM
same,GI50,[50],70.2 nM
same,TGI,[50],1210 nM
same,GI50,[51],35.6 nM
same,TGI,[51],1110 nM
same,GI50,[52],12100 nM
same,TGI,[52],24900 nM
same,GI50,[53],1210 nM
same,TGI,[53],4530 nM
same,GI50,[54],182 nM
same,TGI,[54],914 nM
same,GI50,[55],51.8 nM
same,TGI,[55],891 nM
same,GI50,[56],75.3 nM
same,TGI,[56],2020 nM

# — PubChem BioAssay (NCI)
